The record followed here is patent US20160287571A1, “PHARMACEUTICAL COMPOSITIONS COMPRISING ANTIBACTERIAL AGENTS” (priority 2013, published 2016).

Where two headings read alike, the source gives them in different places.

Holding throughout (format): cell-based, Acinetobacter baumannii
The subject of test [1] is A. baumannii NCTC 13304 (OXA 51, OXA 27). As to the kind of experiment: Time kill study. The note with it: for Bacterial count: agent alone at 8 mcg/ml, initial count 6.06 log CFU/ml. As to the method: (§1) The synergistic killing effect of the combinations according to invention was studied using time kill studies. In a typical time kill study, freshly grown cultures were diluted to the required cell density (initial starting inoculum) in Cation adjusted Muller Hinton broth medium (BD, USA). The antibacterial agents (either alone or in combination) at the required concentrations were added into the culture-containing medium. The samples were incubated under shaking condition (120 rpm) at 37° C. Enumeration of viable bacterial count was done every 2 hour by diluting in normal saline and plating on to the Tryptic Soya Agar plates (BD, USA). The plates were incubated for 24 hours to arrive at the viable bacterial count. The results are expressed in terms of Log CFU per […]. In general, the decrease of 1 Log CFU/ml, corresponds to 90% killing of bacteria. Similarly, 2 Log CFU/ml reductions indicates 99% killing of bacteria and 3 Log CFU/ml reductions is equal to 99.9% killing of bacteria.

The subject of test [2] is A. baumannii NCTC 13302 (OXA 51, OXA 25). The test can be described thus: Time kill study. The conditions noted are these: for Bacterial count: initial count 6.54 log CFU/ml; for Effect on bacterial counts throughout the duration of the study (in words): A. baumannii NCTC 13302, summary of Table 3. As to the method: as §1
Test [3] concerns A. baumannii NCTC 13304 (OXA 51, OXA 27). As to the kind of experiment: MIC in Muller Hinton Agar (CLSI agar dilution). As to the method:
(§2) The antibacterial activity of combinations according to the invention against resistant bacterial strains was investigated. Minimum Inhibitory Concentration (MIC) for the combinations according to invention was determined in Muller Hinton Agar (MHA) (BD, USA) according to Clinical and Laboratory Standards Institute (CLSI) recommendations (Clinical and Laboratory Standards Institute (CLSI), Performance Standards for Antimicrobial Susceptibility Testing, 20th Informational Supplement, M 100-S20, Volume 30, No. 1, 2010). Typically, the test strains were adjusted to deliver about 10^4 CFU per spot with a multipoint inoculator (Applied Quality Services, UK). The plates were pored with MHA containing doubling concentration range of the test combinations according to invention. The plates were inoculated and were incubated at 35° C. for 18 hours.
On the technique in general: Agar dilution tests growth on a series of plates holding different concentrations.

For test [4], the system named is A. baumannii G 156 (OXA 51, OXA 23). The test can be described thus: MIC in Muller Hinton Agar (CLSI agar dilution). The protocol: as §2
Test [5] deals with A. baumannii NCTC 13303 (OXA 51, OXA 26). As to the kind of experiment: MIC in Muller Hinton Agar (CLSI agar dilution). The protocol: as §2
The subject of test [6] is A. baumannii NCTC 13302 (OXA 51, OXA 25). The test can be described thus: MIC in Muller Hinton Agar (CLSI agar dilution). As to the method: as §2
Test [7] has as its system A. baumannii M 126 (OXA 51, OXA 23). As to the kind of experiment: MIC in Muller Hinton Agar (CLSI agar dilution). The protocol:
as §2

Test [8] deals with A. baumannii Q 1460648 (OXA 51, OXA 23). The test can be described thus: MIC in Muller Hinton Agar (CLSI agar dilution). As to the method:
as §2

For test [9], the system named is A. baumannii NCTC 13305 (OXA 51, OXA 58). As to the kind of experiment: MIC in Muller Hinton Agar (CLSI agar dilution). The protocol: as §2
Test [10] concerns A. baumannii J 144 (OXA 51, OXA 23). The test can be described thus: MIC in Muller Hinton Agar (CLSI agar dilution). As to the method:
as §2

The subject of test [11] is A. baumannii NCTC 13301 (OXA 51, OXA 23). The test can be described thus: MIC in Muller Hinton Agar (CLSI agar dilution). The protocol:
as §2

Consider `CC1(C)[C@H](C(=O)O)N2C(=O)C[C@H]2S1(=O)=O` [Sulbactam, sulbactam], for which the Bacterial count worked out at 7.73 Log CFU/ml in test [1] (2 hours); 7.07 Log CFU/ml in test [1] (4 hours); 8.2 Log CFU/ml in [1] (6 hours); 5.74 Log CFU/ml in [2] (2 hours, agent alone at 8 mcg/ml); 5.09 Log CFU/ml in test [2] (4 hours, agent alone at 8 mcg/ml); 6.04 Log CFU/ml in test [2] (6 hours, agent alone at 8 mcg/ml). For the same molecule, the Bacterial count in test [2] (8 hours, agent alone at 8 mcg/ml) is 7.46 Log CFU/ml. Further, the “Effect on bacterial counts throughout the duration of the study (in words)” value is recorded as “did not reduce the bacterial counts” in [1] (A. baumannii NCTC 13304, summary of Table 4) and “did not reduce the bacterial counts” in test [2]. In addition, the MIC in [3] (Acinetobacter baumannii, NCTC13304, read-out: MIC of Sulbactam, In presence of Compound of Formula (I) (4 mcg/ml), NCTC 13304) came out at 2 µg/mL; in [3] (Acinetobacter baumannii, NCTC13304, read-out: MIC of Sulbactam, In presence of Compound of Formula (I) (8 mcg/ml), NCTC 13304), 1 µg/mL; in test [3] (Acinetobacter baumannii, NCTC13304, agent alone, A. baumannii NCTC 13304) it was 8 µg/mL; in test [4] (Acinetobacter baumannii, read-out: MIC of Sulbactam, In presence of Compound of Formula (I) (4 mcg/ml), G 156), 4 µg/mL; in [4] (Acinetobacter baumannii, read-out: MIC of Sulbactam, In presence of Compound of Formula (I) (8 mcg/ml), G 156), 2 µg/mL; in [4] (Acinetobacter baumannii, agent alone, A. baumannii G 156) it was 8 µg/mL. The MIC came out at 8 µg/mL in test [5] (Acinetobacter baumannii, NCTC13303, read-out: MIC of Sulbactam, In presence of Compound of Formula (I) (4 mcg/ml), NCTC 13303); 4 µg/mL in test [5] (Acinetobacter baumannii, NCTC13303, read-out: MIC of Sulbactam, In presence of Compound of Formula (I) (8 mcg/ml), NCTC 13303); 16 µg/mL in test [5] (Acinetobacter baumannii, NCTC13303, agent alone, A. baumannii NCTC 13303); 4 µg/mL in test [6] (Acinetobacter baumannii, NCTC13302, read-out: MIC of Sulbactam, In presence of Compound of Formula (I) (4 mcg/ml), NCTC 13302); 2 µg/mL in [6] (Acinetobacter baumannii, NCTC13302, read-out: MIC of Sulbactam, In presence of Compound of Formula (I) (8 mcg/ml), NCTC 13302); 32 µg/mL in test [6] (Acinetobacter baumannii, NCTC13302, agent alone, A. baumannii NCTC 13302). In addition, the MIC in test [7] (Acinetobacter baumannii, read-out: MIC of Sulbactam, In presence of Compound of Formula (I) (4 mcg/ml), M 126) amounted to 8 µg/mL; in test [7] (Acinetobacter baumannii, read-out: MIC of Sulbactam, In presence of Compound of Formula (I) (8 mcg/ml), M 126), 2 µg/mL; in test [7] (Acinetobacter baumannii, agent alone, A. baumannii M 126), 32 µg/mL; in [8] (Acinetobacter baumannii, read-out: MIC of Sulbactam, In presence of Compound of Formula (I) (4 mcg/ml), Q 1460648), 4 µg/mL; in [8] (Acinetobacter baumannii, read-out: MIC of Sulbactam, In presence of Compound of Formula (I) (8 mcg/ml), Q 1460648), 2 µg/mL; in test [8] (Acinetobacter baumannii, agent alone, A. baumannii Q 1460648), 16 µg/mL. The MIC in test [9] (Acinetobacter baumannii, NCTC13305, read-out: MIC of Sulbactam, In presence of Compound of Formula (I) (4 mcg/ml), NCTC 13305) was found to be 2 µg/mL; in [9] (Acinetobacter baumannii, NCTC13305, read-out: MIC of Sulbactam, In presence of Compound of Formula (I) (8 mcg/ml), NCTC 13305), 1 µg/mL; in test [9] (Acinetobacter baumannii, NCTC13305, agent alone, A. baumannii NCTC 13305), 4 µg/mL; in test [10] (Acinetobacter baumannii, read-out: MIC of Sulbactam, In presence of Compound of Formula (I) (4 mcg/ml), J 144) it was 2 µg/mL; in test [10] (Acinetobacter baumannii, read-out: MIC of Sulbactam, In presence of Compound of Formula (I) (8 mcg/ml), J 144) it was 1 µg/mL; in test [10] (Acinetobacter baumannii, agent alone, A. baumannii J 144), 16 µg/mL. Moreover, the MIC worked out at 4 µg/mL in test [11] (Acinetobacter baumannii, NCTC13301, read-out: MIC of Sulbactam, In presence of Compound of Formula (I) (4 mcg/ml), NCTC 13301); 2 µg/mL in [11] (Acinetobacter baumannii, NCTC13301, read-out: MIC of Sulbactam, In presence of Compound of Formula (I) (8 mcg/ml), NCTC 13301); 32 µg/mL in test [11] (Acinetobacter baumannii, NCTC13301, agent alone, A. baumannii NCTC 13301).
As for `C[C@@H](O)[C@H]1C(=O)N2C(C(=O)O)=C(S[C@@H]3CN[C@H](C(=O)N(C)C)C3)[C@H](C)[C@H]12` [Meropenem, meropenem], the MIC is 32 µg/mL in test [3] (Acinetobacter baumannii, NCTC13304, agent alone, A. baumannii NCTC 13304, read-out: MIC); 32 µg/mL in test [4] (Acinetobacter baumannii, agent alone, A. baumannii G 156, read-out: MIC); > 32 µg/mL in test [5] (Acinetobacter baumannii, NCTC13303, agent alone, A. baumannii NCTC 13303, read-out: MIC); 32 µg/mL in test [7] (Acinetobacter baumannii, agent alone, A. baumannii M 126, read-out: MIC); 32 µg/mL in test [8] (Acinetobacter baumannii, agent alone, A. baumannii Q 1460648, read-out: MIC); 4 µg/mL in [9] (Acinetobacter baumannii, NCTC13305, agent alone, A. baumannii NCTC 13305, read-out: MIC).
For colistin, the MIC in test [3] (agent alone, A. baumannii NCTC 13304) came to 1 µg/mL; in [4] (agent alone, A. baumannii G 156), 1 µg/mL; in test [5] (agent alone, A. baumannii NCTC 13303), 1 µg/mL; in test [6] (agent alone, A. baumannii NCTC 13302) it was 2 µg/mL; in test [7] (agent alone, A. baumannii M 126), 1 µg/mL; in test [8] (agent alone, A. baumannii Q 1460648), 1 µg/mL. In addition, the MIC in test [9] (agent alone, A. baumannii NCTC 13305) came out at 1 µg/mL; in [10] (agent alone, A. baumannii J 144), 1 µg/mL; in test [11] (agent alone, A. baumannii NCTC 13301), 2 µg/mL.
Take `CN(C)c1cc(NC(=O)CNC(C)(C)C)c(O)c2c1C[C@H]1C[C@H]3[C@H](N(C)C)C(O)=C(C(N)=O)C(=O)[C@@]3(O)C(O)=C1C2=O` [Tigecycline, tigecycline]: the Bacterial count in test [2] (2 hours, agent alone at 1 mcg/ml) is on record as 3.47 Log CFU/ml; in test [2] (4 hours, agent alone at 1 mcg/ml) it was 3 Log CFU/ml; in test [2] (6 hours, agent alone at 1 mcg/ml), 3 Log CFU/ml; in test [2] (8 hours, agent alone at 1 mcg/ml), 3.23 Log CFU/ml. Besides, the “Effect on bacterial counts throughout the duration of the study (in words)” value in test [2] is given as “exhibited the reduction of the bacterial counts”. Besides, the MIC turned out to be 0.5 µg/mL in test [3] (Acinetobacter baumannii, NCTC13304); 1 µg/mL in test [4] (Acinetobacter baumannii); 2 µg/mL in test [5] (Acinetobacter baumannii, NCTC13303); 2 µg/mL in test [6] (Acinetobacter baumannii, NCTC13302); 0.5 µg/mL in test [7] (Acinetobacter baumannii); 1 µg/mL in test [8] (Acinetobacter baumannii). In addition, the MIC amounted to 0.5 µg/mL in test [9] (Acinetobacter baumannii, NCTC13305); 2 µg/mL in test [10] (Acinetobacter baumannii); 2 µg/mL in [11] (Acinetobacter baumannii, NCTC13301).
